The source of these data is US12291518B2, “Thyroid hormone receptor agonists and use thereof” (Eccogene Inc., priority 2020, dated 2025).

Test [1] has as its target T1, THR alpha-LBD (Homo sapiens, UniProt P10827).
T1 construct: except that THR alpha-LBD of a final concentration 0.25 nM was used; purchased Invitrogen PV4687
Kind of test: THR-α Coactivator Peptide Recruitment Assay (LanthaScreen TR-FRET). The class given is biochemical. On the procedure: (§1) A time-resolved FRET (TR-FRET) assay was used to test representative compounds of the application.
(§2) THR-β Coactivator Peptide Recruitment Assay were conducted by using Invitrogen's LanthaScreen™ TR-FRET Thyroid Receptor beta Assay Kit (Catalog no. PV4686). Binding of an agonist to the nuclear receptor causes a subsequent binding of a coactivator peptide, resulting in fluorescence energy transfer from the labelled nuclear receptor to the proximal coactivator peptide, which reflects the binding affinity of the agonist and the nuclear receptor. The assay was conducted by following the manufacturer's instructions. Briefly, THR beta-LBD (the final concentration is 0.5 nM) was added to the 384-well assay plate containing test compounds, followed by addition of Fluorescein-SRC2-2 coactivator peptide and terbium (Tb)-labeled anti-GST antibody. The final concentration of THR beta-LBD, Fluorescein-SRC2-2 coactivator peptide and terbium (Tb)-labeled anti-GST antibody is 0.5 nM, 0.1 nM and 2 nM, respectively. After a gentle mix and incubation at room temperature for 2 h, the signal was read on the EnVision Multilabel Plate Reader at wavelengths of 520 nm and 495 nm. TR-FRET ratio was calculated by dividing the emission signal at 520 nm and the emission signal at 495 nm, and then was plotted against a sigmoidal dose response curve (four parameters, GraphPad™ Prism 8) to determine the EC50 value.
THR-α Coactivator Peptide Recruitment Assay were conducted by using Invitrogen's LanthaScreen™ TR-FRET Thyroid Receptor alpha Assay Kit (Catalog no. PV4687), following the same method described above except that THR alpha-LBD of a final concentration 0.25 nM was used.

The target in test [2] is T2, THR beta-LBD (Homo sapiens, UniProt P10828).
T2 construct: THR beta-LBD (the final concentration is 0.5 nM) was added to the 384-well assay plate; purchased Invitrogen PV4686
T2 sequence (P10828 217-461 limits assumed): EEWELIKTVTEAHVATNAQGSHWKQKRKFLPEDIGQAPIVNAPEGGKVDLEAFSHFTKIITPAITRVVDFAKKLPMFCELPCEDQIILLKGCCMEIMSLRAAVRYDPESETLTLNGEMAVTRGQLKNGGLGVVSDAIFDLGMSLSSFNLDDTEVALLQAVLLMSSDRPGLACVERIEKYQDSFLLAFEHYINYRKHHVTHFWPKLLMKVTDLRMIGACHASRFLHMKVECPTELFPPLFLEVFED
Description: THR-β Coactivator Peptide Recruitment Assay (LanthaScreen TR-FRET). The class given is biochemical. As to the method: as §1, §2
For orientation: TR-FRET usually uses a lanthanide donor and a delayed reading to cut background.

The mark [3] stands for this setting: TR-FRET coactivator recruitment, THR alpha-LBD 0.25 nM.
Where [4] appears, read: TR-FRET coactivator recruitment, THR alpha-LBD 0.25 nM, read-out: THRα EC50.
Setting [5] is: TR-FRET coactivator recruitment, THR beta-LBD 0.5 nM.
Setting [6] is: TR-FRET coactivator recruitment, THR beta-LBD 0.5 nM, read-out: THRβ EC50.

Like-named read-outs stand apart in the source and are kept apart here.

T1 sequence (P10827 163-410 isoform P10827-2 limits assumed, other chains not shown): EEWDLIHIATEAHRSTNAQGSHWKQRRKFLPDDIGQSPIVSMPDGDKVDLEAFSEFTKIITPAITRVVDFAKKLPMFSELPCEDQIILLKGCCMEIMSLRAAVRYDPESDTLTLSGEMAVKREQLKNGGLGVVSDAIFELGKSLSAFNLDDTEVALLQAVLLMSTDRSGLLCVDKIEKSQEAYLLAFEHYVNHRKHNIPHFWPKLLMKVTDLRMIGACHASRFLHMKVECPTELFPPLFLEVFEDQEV

Consider `CNS(=O)(=O)c1cc(Oc2c(Cl)cc(-n3nc(C(F)F)c(=O)[nH]c3=O)cc2Cl)ccc1O` [Compound 13, 5-(2,6-dichloro-4-(6-(difluoromethyl)-3,5-dioxo-4,5-dihydro-1,2,4-triazin-2(3H)-yl)phenoxy)-2-hydroxy-N-methylbenzenesulfonamide], for which the “THRα Emax” value in test [1] (setting [3]) is listed as “A (85~110)”. In addition, the 50% effective concentration (EC50) in test [1] (setting [4]) and in test [2] (setting [6]) was less than 2 nM throughout. In test [2] (setting [5]), the “THRβ Emax” value is “A (90~110)”.
On to `O=c1[nH]c(=O)n(-c2cc(Cl)c(Oc3ccc(O)c(S(=O)(=O)NC4CC4)c3)c(Cl)c2)nc1C(F)F` [Compound 14, N-cyclopropyl-5-(2,6-dichloro-4-(6-(difluoromethyl)-3,5-dioxo-4,5-dihydro-1,2,4-triazin-2(3H)-yl)phenoxy)-2-hydroxybenzenesulfonamide], for which the “THRα Emax” value in test [1] (setting [3]) is given as “A (85~110)”. Besides, the concentration for a half-maximal effect (EC50) in test [1] (setting [4]) and in test [2] (setting [6]) was less than 2 nM in each case. In addition, in test [2] (setting [5]), the “THRβ Emax” value is “A (90~110)”.
For the compound `O=c1[nH]c(=O)n(-c2cc(Cl)c(Oc3ccc(O)c([S@TB3](=O)(=O)N4CCOCC4)c3)c(Cl)c2)nc1C(F)F` [Compound 15, 2-(3,5-dichloro-4-(4-hydroxy-3-(morpholinosulfonyl)phenoxy)phenyl)-6-(difluoromethyl)-1,2,4-triazine-3,5(2H,4H)-dione], in test [1] (setting [3]), the “THRα Emax” value is listed as “B (40~85)”. Besides, the concentration for a half-maximal effect (EC50) in test [1] (setting [4]) and in test [2] (setting [6]) was less than 2 nM throughout. Moreover, the “THRβ Emax” value in test [2] (setting [5]) was “B (75~90)”.
Turning to `O=c1[nH]c(=O)n(-c2cc(Cl)c(Oc3ccc(O)c(S(=O)(=O)N4CCC(O)CC4)c3)c(Cl)c2)nc1C(F)F` [Compound 16, 2-(3,5-dichloro-4-(4-hydroxy-3-((4-hydroxypiperidin-1-yl)sulfonyl)phenoxy)phenyl)-6-(difluoromethyl)-1,2,4-triazine-3,5(2H,4H)-dione], the “THRα Emax” value in test [1] (setting [3]) is on record as “A (85~110)”. The EC50 – broadly, the concentration that produces a half-maximal response – in test [1] (setting [4]) was 2 to 200 nM; in test [2] (setting [6]) it was less than 2 nM. Besides, in test [2] (setting [5]), the “THRβ Emax” value is recorded as “B (75~90)”.
For the compound `N#CC1(NS(=O)(=O)c2cc(Oc3c(Cl)cc(-n4nc(C(F)F)c(=O)[nH]c4=O)cc3Cl)ccc2O)CC1` [Compound 17, N-(1-cyanocyclopropyl)-5-(2,6-dichloro-4-(6-(difluoromethyl)-3,5-dioxo-4,5-dihydro-1,2,4-triazin-2(3H)-yl)phenoxy)-2-hydroxybenzenesulfonamide], the “THRα Emax” value in test [1] (setting [3]) is given as “A (85~110)”. Also, the EC50 in test [1] (setting [4]) is 2 to 200 nM; in test [2] (setting [6]), less than 2 nM. Besides, the “THRβ Emax” value in test [2] (setting [5]) is “A (90~110)”.
As for `O=c1[nH]c(=O)n(-c2cc(Cl)c(Oc3ccc(O)c(S(=O)(=O)N[C@H]4C[C@H](C(=O)NC5CC5)C4)c3)c(Cl)c2)nc1C(F)F` [Compound 18], the “THRα Emax” value in test [1] (setting [3]) was “B (40~85)”. Further, the EC50 is 200 to 1000 nM in test [1] (setting [4]) and 2 to 20 nM in test [2] (setting [6]). The “THRβ Emax” value in test [2] (setting [5]) was “B (75~90)”.
The matching figures for `O=c1[nH]c(=O)n(-c2cc(Cl)c(Oc3ccc(O)c(S(=O)(=O)NC4CC4)c3)c(Cl)c2)nc1C(F)(F)F` [Compound 19, N-cyclopropyl-5-[2,6-dichloro-4-[3,5-dioxo-6-(trifluoromethyl)-1,2,4-triazin-2-yl]phenoxy]-2-hydroxy-benzenesulfonamide]: “A (85~110)”, 2 to 200 nM, less than 2 nM and “A (90~110)”.
As for `CNS(=O)(=O)c1cc(Oc2c(Cl)cc(-n3nc(C(F)(F)F)c(=O)[nH]c3=O)cc2Cl)ccc1O` [Compound 20, 5-(2,6-dichloro-4-(3,5-dioxo-6-(trifluoromethyl)-4,5-dihydro-1,2,4-triazin-2(3H)-yl)phenoxy)-2-hydroxy-N-methylbenzenesulfonamide], the “THRα Emax” value in test [1] (setting [3]) is on record as “A (85~110)”. Besides, the figures for the EC50 in test [1] (setting [4]) and in test [2] (setting [6]) were 2 to 200 nM and 2 to 20 nM, respectively. Moreover, the “THRβ Emax” value in test [2] (setting [5]) is on record as “A (90~110)”.
The matching figures for `O=c1[nH]c(=O)n(-c2cc(Cl)c(Oc3ccc(O)c(S(=O)(=O)N4CCC(F)(F)CC4)c3)c(Cl)c2)nc1C(F)(F)F` [Compound 21, 2-(3,5-dichloro-4-(3-((4,4-difluoropiperidin-1-yl)sulfonyl)-4-hydroxyphenoxy)phenyl)-6-(trifluoromethyl)-1,2,4-triazine-3,5(2H,4H)-dione]: “B (40~85)”, 2 to 200 nM, 2 to 20 nM and “A (90~110)”.
As for `CNC(=O)C1(NS(=O)(=O)c2cc(Oc3c(Cl)cc(-n4nc(C(F)F)c(=O)[nH]c4=O)cc3Cl)ccc2O)CC1` [Compound 22, 1-[[5-[2,6-dichloro-4-[6-(difluoromethyl)-3,5-dioxo-1,2,4-triazin-2-yl]phenoxy]-2-hydroxy-phenyl]sulfonylamino]-N-methyl-cyclopropane carboxamide], in test [1] (setting [3]), the “THRα Emax” value is listed as “B (40~85)”. Moreover, the EC50 in test [1] (setting [4]) is 200 to 1000 nM; in test [2] (setting [6]) it was 2 to 20 nM. Also, the “THRβ Emax” value in test [2] (setting [5]) was “B (75~90)”.
As to `NC(=O)C1(NS(=O)(=O)c2cc(Oc3c(Cl)cc(-n4nc(C(F)F)c(=O)[nH]c4=O)cc3Cl)ccc2O)CC1` [Compound 24, 1-[[5-[2,6-dichloro-4-[6-(difluoromethyl)-3,5-dioxo-1,2,4-triazin-2-yl]phenoxy]-2-hydroxy-phenyl]sulfonylamino]cyclopropanecarboxamide], in test [1] (setting [3]), the “THRα Emax” value was “A (85~110)”. Besides, the concentration giving a half-maximal response (EC50) in test [1] (setting [4]) was 2 to 200 nM; in test [2] (setting [6]), less than 2 nM. Moreover, the “THRβ Emax” value in test [2] (setting [5]) is “A (90~110)”.
The corresponding values for `CNC(=O)C1(N[S@SP3](=O)(=O)c2cc(Oc3c(Cl)cc(-n4nc(C(F)(F)F)c(=O)[nH]c4=O)cc3Cl)ccc2O)CC1` [Compound 25, 1-((5-(2,6-dichloro-4-(3,5-dioxo-6-(trifluoromethyl)-4,5-dihydro-1,2,4-triazin-2(3H)-yl)phenoxy)-2-hydroxyphenyl)sulfonamido)-N-methylcyclopropane-1-carboxamide] are “C (<40)”, greater than 1000 nM, 20 to 100 nM and “B (75~90)”.
Take `N#CC1CC(N[S@SP3](=O)(=O)c2cc(Oc3c(Cl)cc(-n4nc(C(F)F)c(=O)[nH]c4=O)cc3Cl)ccc2O)C1` (stereo not shown) [Compound 26, N-(3-cyanocyclobutyl)-5-[2,6-dichloro-4-[6-(difluoromethyl)-3,5-dioxo-1,2,4-triazin-2-yl]phenoxy]-2-hydroxy-benzenesulfonamide]: the EC50 in test [1] was 2 to 200 nM; in test [2] it was less than 2 nM. In test [1] (setting [3]), the “THRα Emax” value is reported as “A (85~110)”. Further, in test [2] (setting [5]), the “THRβ Emax” value is reported as “A (90~110)”.
With `O=c1[nH]c(=O)n(-c2cc(Cl)c(Oc3ccc(O)c(S(=O)(=O)N4CCC(F)(F)CC4)c3)c(Cl)c2)nc1C(F)F` [Compound 27, 2-[3,5-dichloro-4-[3-[(4,4-difluoro-1-piperidyl)sulfonyl]-4-hydroxy-phenoxy]phenyl]-6-(difluoromethyl)-1,2,4-triazine-3,5-dione], in test [1] (setting [3]), the “THRα Emax” value is given as “A (85~110)”. For the same compound, the EC50 in test [1] (setting [4]) and in test [2] (setting [6]) was less than 2 nM in each case. Further, in test [2] (setting [5]), the “THRβ Emax” value was “B (75~90)”.
On to `O=c1[nH]c(=O)n(-c2cc(Cl)c(Oc3ccc(O)c(S(=O)(=O)N4CCC4)c3)c(Cl)c2)nc1C(F)F` [Compound 28, 2-(4-(3-(azetidin-1-ylsulfonyl)-4-hydroxyphenoxy)-3,5-dichlorophenyl)-6-(difluoromethyl)-1,2,4-triazine-3,5(2H,4H)-dione], for which, in test [1] (setting [3]), the “THRα Emax” value is given as “A (85~110)”. The EC50 in test [1] (setting [4]) and in test [2] (setting [6]) was less than 2 nM throughout. Besides, the “THRβ Emax” value in test [2] (setting [5]) is recorded as “B (75~90)”.
Regarding `O=c1[nH]c(=O)n(-c2cc(Cl)c(Oc3ccc(O)c(S(=O)(=O)N[C@H]4CCOC4)c3)c(Cl)c2)nc1C(F)F` [Compound 29, (S)-5-(2,6-dichloro-4-(6-(difluoromethyl)-3,5-dioxo-4,5-dihydro-1,2,4-triazin-2(3H)-yl)phenoxy)-2-hydroxy-N-(tetrahydrofuran-3-yl)benzenesulfonamide], the “THRα Emax” value in test [1] (setting [3]) is “A (85~110)”. For the same compound, the EC50 is 2 to 200 nM in test [1] (setting [4]) and less than 2 nM in test [2] (setting [6]). In addition, the “THRβ Emax” value in test [2] (setting [5]) is reported as “A (90~110)”.
